The values below come from patent US7105534B2, “Imidazo[1,2-α]pyridine ether compounds as ion channel modulators” (Cardiome Pharma Corp., priority 2000, dated 2006).

Structures are written as SMILES.

One may read the IC50 as the midpoint of a concentration-inhibition curve.

This assay concerns the target T1, Kv4.2 (Homo sapiens, UniProt Q9NZV8).
T1 construct: expressed in transfected cells; host or cells: HEK cells, transient transfection, vector pCDNA3
T1 sequence (Q9NZV8 1-630): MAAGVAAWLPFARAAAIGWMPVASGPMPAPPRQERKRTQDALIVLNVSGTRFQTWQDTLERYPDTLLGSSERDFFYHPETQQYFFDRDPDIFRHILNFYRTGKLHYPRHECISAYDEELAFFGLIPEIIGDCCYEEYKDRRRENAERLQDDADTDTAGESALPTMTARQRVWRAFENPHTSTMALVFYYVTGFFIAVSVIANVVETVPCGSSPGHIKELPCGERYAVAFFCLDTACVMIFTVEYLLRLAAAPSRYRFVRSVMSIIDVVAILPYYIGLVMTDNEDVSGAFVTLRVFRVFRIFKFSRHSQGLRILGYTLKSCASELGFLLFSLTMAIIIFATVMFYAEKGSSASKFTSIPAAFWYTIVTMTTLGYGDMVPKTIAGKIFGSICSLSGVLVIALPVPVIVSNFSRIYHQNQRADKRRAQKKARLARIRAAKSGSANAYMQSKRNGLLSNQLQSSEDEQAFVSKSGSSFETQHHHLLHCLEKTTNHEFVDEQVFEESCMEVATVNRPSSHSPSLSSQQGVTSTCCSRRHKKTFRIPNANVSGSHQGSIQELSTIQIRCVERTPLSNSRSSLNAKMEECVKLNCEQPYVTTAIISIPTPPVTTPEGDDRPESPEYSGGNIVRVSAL
The assay is described as follows: Patch-clamp inhibition of cloned ion channel current in transfected HEK cells: Kv4.2. The note with it: integrated current, -80 mV to +60 mV. The class given is cell-based. As to the method: The relevant cloned ion channels (e.g. cardiac hH1, Kv1.4, Kv1.5, Kv4.2, Kv2.1, HERG etc.) are studied by transient transfection into HEK cells using the mammalian expression vector pCDNA3. Transfections for each channel type are carried out separately to allow individual study of the ion channel of interest. Cells expressing channel protein are detected by cotransfecting cells with the vector pHook-1 (Invitrogen, San Diego, Calif., USA). […] Equal concentrations of individual channel and pHook DNA are incubated with 10× concentration of lipofectAce in Modified Eagle's Medium (MEM, Canadian Life Technologies) and incubated with parent HEK cells plated on 25 mm culture dishes. After 3–4 hours the solution is replaced with a standard culture medium plus 20% fetal bovine serum and 1% antimycotic. Transfected cells are maintained at 37C in an air/5% CO2 incubator in 25 mm Petri dishes plated on glass coverslips for 24–48 hours to allow channel expression to occur. 20 min prior to experiments, cells are treated with beads coated with phOX. After 15 min, excess beads are […] off with cell culture medium and cells which had beads stuck to them are used for electrophysiological tests.
For whole-cell recording the control pipette filling solution contained (in mM): KCl, 130; EGTA, 5; MgCl2, 1; HEPES, 10; Na2ATP, 4; GTP, 0.1; and is adjusted to pH 7.2 with KOH. The control bath solution contained (in mM): NaCl, 135; KCI, 5; sodium acetate, 2.8; MgCl2, 1; HEPES, 10; CaCl2, 1; and is adjusted to pH 7.4 with NaOH. The test ion channel modulating compound is dissolved to 10 mM stock solutions in water and used at concentrations between 0.5 and 100 μM.
Coverslips containing cells are removed from the incubator before experiments and placed in a superfusion chamber (volume 250 μl) containing the control bath solution at 22C to 23C. All recordings are made via the variations of the patch-clamp technique, using an Axopatch 200A amplifier (Axon Instruments, CA). Patch electrodes are pulled from thin-walled borosilicate glass (World Precision Instruments; FL) on a horizontal micropipette puller, fire-polished, and filled with appropriate solutions. Electrodes had resistances of […] when filled with control filling solution. Analog capacity compensation is used in all whole cell measurements. In some experiments, leak subtraction is applied to data. Membrane potentials have not been corrected for any junctional potentials that arose between the pipette and bath solution. Data are filtered at 5 to 10 kHz before digitization and stored on a microcomputer for later analysis using the pClamp6 software (Axon Instruments, Foster City, Calif.). Due to the high level of expression of channel cDNA's in HEK cells, there is no need for signal averaging. The average cell capacitance is quite small, and the absence of ionic current at negative membrane potentials allowed faithful leak subtraction of data.
The concentration-response curves for changes in peak and steady-state current produced by the test compound are computer-fitted to the Hill equation: f=1−1/[1+([…])^n] [1]
where f is the fractional current (f=Idrug/Icontrol) at drug concentration [D]; IC50 is the concentration producing half-maximal inhibition and n is the Hill coefficient.
Compounds of the present invention may be evaluated by this method. […] Block is determined from the decrease in peak hH1 Na^+ current, or in steady-state Kv1.5 and integrated Kv4.2 current in the presence of drug. To record Na^+ current, cells are depolarized from the holding potential of −100 mV to a voltage of −30 mV for 10 ms to fully open and inactivate the channel. To record Kv1.5 and Kv4.2 current, cells are depolarized from the holding potential of −80 mV to a voltage of +60 mV for 200 ms to fully open the channel. Currents are recorded in the steady-state at a range of drug concentrations during stimulation every 4 s. […]

Molecule `COc1ccc(CCCOc2cccn3cc(C)nc23)cc1OC` [Compound 3, 8-[3-(3,4-DIMETHOXYPHENYL)PROPOXY]-2-METHYLIMIDAZO[1,2-α]PYRIDINE MONOHYDROCHLORDE] gave an IC50 of 13 µM.
